Results taken from patent publication US6861420B2, “N-substituted 1,2,4,5-tetrahydro-1H-benzo[d]azepine compounds” (Pharmacia & Upjohn Company, priority 2001, dated 2005).

| melting point | Structure (SMILES) |
| --- | --- |
| > 120 °C (dec.) | O=C(NC1CN2CCC1CC2)N1CCc2ccccc2CC1 (stereo not shown) |
| 128 to 132 °C | O=C(N[C@@H]1CN2CCC1CC2)N1CCc2ccccc2CC1 |
| 171 to 173 °C | Cc1ncccc1Oc1ccc(NC(=O)N2CCc3ccccc3CC2)cn1 [Example 1, N-{6-[(2-methylpyridin-3-yl)oxy]pyridin-3-yl}-1,2,4,5-tetrahydro-3H-3-benzazepine-3-carboxamide] |
| 101 °C (dec.) | Cc1ncccc1Oc1ccc(NC(=O)N2CCc3ccc(-n4c(C)ccc4C)cc3CC2)cn1 [Example 2, 7-(2,5-Dimethyl-1H-pyrrol-1-yl)-N-{6-[(2-methylpyridin-3-yl)oxy]pyridin-3-yl}-1,2,4,5-tetrahydro-3H-3-benzazepine-3-carboxamide] |
| 144 to 146 °C | O=C(Nc1cccnc1)N1CCc2ccccc2CC1 [Example 5, 1,2,4,5-Tetrahydro-benzo[d]azepine-3-carboxylic acid pyridin-3-ylamide] |
| 120 to 122 °C | O=C(Nc1cccnc1Cl)N1CCc2ccccc2CC1 [Example 6, N-[2-Chloropyridin-3-yl]-1,2,4,5-tetrahydro-3H-3-benzazepine-3-carboxamide] |
| 170 to 172 °C | O=C(Nc1ccc(Cl)nc1)N1CCc2ccccc2CC1 [Example 7, N-(6-chloropyridin-3-yl)-1,2,4,5-tetrahydro-3H-3-benzazepine-3-carboxamide] |
| 156 to 157 °C | COc1ccc(Oc2ccc(NC(=O)N3CCc4ccccc4CC3)cn2)cc1 [Example 9, N-[6-(4-Methoxyphenoxy)pyridin-3-yl]-1,2,4,5-tetrahydro-3H-3-benzazepine-3-carboxamide] |
| 135 to 137 °C | O=C(Nc1ccc(Oc2ccc(Cl)cc2)nc1)N1CCc2ccccc2CC1 [Example 10, N-[6-(4-Chlorophenoxy)pyridin-3-yl]-1,2,4,5-tetrahydro-3H-3-benzazepine-3-carboxamide] |
| 170 to 172 °C | O=C(Nc1ccc(Oc2ccccc2F)nc1)N1CCc2ccccc2CC1 [Example 11, N-[6-(2-Fluorophenoxy)pyridin-3-yl]-1,2,4,5-tetrahydro-3H-3-benzazepine-3-carboxamide] |
| 149 to 152 °C | CC(C)Oc1ccccc1Oc1ccc(NC(=O)N2CCc3ccccc3CC2)cn1 [Example 12, N-[6-(2-isopropoxyphenoxy)pyridin-3-yl]-1,2,4,5-tetrahydro-3H-3-benzazepine-3-carboxamide] |
| 151 to 153 °C | Cc1cc(Cl)ccc1Oc1ccc(NC(=O)N2CCc3ccccc3CC2)cn1 [Example 13, N-[6-(2-Methyl-4-chlorophenoxy)pyridin-3-yl]-1,2,4,5-tetrahydro-3H-3-benzazepine-3-carboxamide] |
| 171 to 173 °C | Cc1cc(Oc2ccc(NC(=O)N3CCc4ccccc4CC3)cn2)ccc1Cl [Example 14, N-[6-(3-Methyl-4-chlorophenoxy)pyridin-3-yl]-1,2,4,5-tetrahydro-3H-3-benzazepine-3-carboxamide] |
| 154 to 155 °C | O=C(Nc1ccc(Oc2ccc(Cl)cc2Cl)nc1)N1CCc2ccccc2CC1 [Example 15, N-[6-(2,4-Dichlorophenoxy)pyridin-3-yl]-1,2,4,5-tetrahydro-3H-3-benzazepine-3-carboxamide] |
| 208 to 209 °C | Cc1cc(Oc2ccc(NC(=O)N3CCc4ccccc4CC3)cn2)cc(C)c1Cl [Example 16, N-[6-(4-Chloro-3,5-dimethylphenoxy)pyridin-3-yl]-1,2,4,5-tetrahydro-3H-3-benzazepine-3-carboxamide] |
| 214 to 216 °C | O=C(NC1CCCNC1)N1CCc2ccccc2CC1 (stereo not shown) [Example 17, N-Piperidin-3-yl-1,2,4,5-tetrahydro-3H-3-benzazepine-3-carboxamide] |
